Measurements taken from patent US20150148311A1, “NON-SYSTEMIC TGR5 AGONISTS” (Ardelyx, Inc., priority 2011, published 2015).

Legend:
human TGR5 = biological target: T1, human TGR5 (Homo sapiens, UniProt Q8TDU6); experiment: Cell-based TGR5 assay, HEK293 cells stably expressing human TGR5, cAMP by HTRF; details: HEK293 cells stably expressing human TGR5, 30 min at 37 C, 0.05 nM to 10 μM, read-out: pEC50 Human TGR5 (converted)
T1 construct: expressed in transfected cells
T1 sequence (Q8TDU6 1-330): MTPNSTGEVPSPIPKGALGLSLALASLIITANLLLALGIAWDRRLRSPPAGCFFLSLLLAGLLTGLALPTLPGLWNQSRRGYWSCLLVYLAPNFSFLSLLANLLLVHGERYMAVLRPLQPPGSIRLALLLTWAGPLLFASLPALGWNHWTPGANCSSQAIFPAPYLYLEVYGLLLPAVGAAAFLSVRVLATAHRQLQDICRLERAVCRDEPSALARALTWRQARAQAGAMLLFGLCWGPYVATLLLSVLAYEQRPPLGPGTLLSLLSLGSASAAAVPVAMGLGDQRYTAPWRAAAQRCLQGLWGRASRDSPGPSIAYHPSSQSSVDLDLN
Outline: (§1)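 cAMP HTRF read-out, converted to concentration via standard curve, after a 30 min, 37 °C compound exposure in HBSS with 10 mM HEPES pH 7.4 and 0.5 mM IBMX, compounds serially diluted 3-fold from 10 mM DMSO stock then 100-fold. Cells: stable human TGR5 HEK293, or NCI-H716 expressing TGR5 endogenously.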

[1] = biological target: T2, endogenously expressed TGR5 in NCI H716 (Homo sapiens, UniProt Q8TDU6); experiment: Cell-based TGR5 assay, NCI-H716 cells endogenously expressing human TGR5, cAMP by HTRF; details: 30 min at 37 C, 22 nM to 50 μM, read-out: pEC50 endogenously expressed TGR5 in NCI H716 (converted)
T2 construct: human caecum carcinoma cell line NCI-H716 which endogenously expresses human TGR5; endogenous in cells; host or cells: NCI-H716
T2 sequence (Q8TDU6 1-330): T1 sequence (Q8TDU6 1-330)
Outline: as §1

[2] = Compound concentration in gallbladder 16 hours post dose; format: in vivo; details: 30 mg/kg; for Number of Mice with Gallbladder Concentration < LLOQ: mice below LLOQ / mice in group; for concentration at 16 h: male, C57BL/6, mouse, gallbladder (homogenate, with contents), mice, gallbladder, read-out: Mean Example Gallbladder Concentration
Procedure: Compound concentrations in the gall bladder were determined as follows: each mouse was heavily anesthetized with isoflurane, the peritoneal cavity was opened and the gallbladder, with its entire contents, was carefully excised. After harvest, gall bladders were homogenized in 100 μL water using a micro-homogenizer. Samples of homogenate were diluted 1:5 in water and precipitated with three volumes of neat acetonitrile. After centrifugation, supernatants were analyzed by LC-MS/MS. The level of test compound present in gall bladder samples was interpolated from a standard curve for each individual compound prepared in a matrix of gallbladder homogenate from vehicle treated animals.
C57BL/6 male mice on regular chow had food removed (to prevent gallbladder emptying) and were dosed in the early evening with vehicle (2% DMSO in 0.4% hydroxypropyl methylcellulose) or 30 mg/kg of examples 176, 177, or 178 formulated in vehicle. The next morning (˜16 h post-dose), mice were heavily anesthetized with isoflurane, the peritoneal cavity was opened and gallbladders (with contents) were carefully excised and weighed. Compound levels in gallbladder were analyzed as described in Example 293.

CD-1 female mice = experiment: In vivo measurement of CCK-mediated gallbladder emptying (egg yolk); details: fasted ~16 h, oral 30 mg/kg (devazepide 1 mg/kg) 1 h before egg yolk, gallbladder weighed 15 min later (FIG. 1)
Procedure: CD-1 female mice on regular chow had food removed (to prevent gallbladder emptying) in the late evening. The next morning (˜16 h later), groups of mice were dosed orally with vehicle (10% hydroxypropyl-β-cyclodextrin; 2 groups), devazepide in water (1 mg/kg; […]. One hour later, 1 group of vehicle-treated mice was dosed orally with saline, and all other groups were dosed orally with lyophilized egg yolk [0.75 mL; 30% (wt/vol) reconstituted in saline for induction of CCK-mediated gallbladder emptying]. Fifteen minutes later, mice were heavily anesthetized with isoflurane, the peritoneal cavity was opened and gallbladders (with contents) were carefully excised and weighed.

[3] = Compound concentration in gall bladder, LC-MS/MS, 8 h post dose; format: in vivo; details: 30 mg/kg; for Number of Mice with Gallbladder Concentration < LLOQ: mice below LLOQ / mice in group
Outline: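 Gallbladder with its contents excised from isoflurane-anesthetized mice 8 h after dosing and homogenized in water. Homogenate diluted 1:5, precipitated with acetonitrile and measured by LC-MS/MS. Levels interpolated from per-compound standard curves in vehicle-treated gallbladder homogenate.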

[4] = Compound plasma concentration, LC-MS/MS, 8 h post dose; format: in vivo; details: 30 mg/kg; for Number of Mice with Plasma Concentration < LLOQ: mice below LLOQ / mice in group; for concentration at 8 h: male, C57BL/6, mouse, mice, plasma, read-out: Mean Example Plasma Concentration
Outline: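 Blood was taken from the left ventricle 8 h after dosing, under isoflurane anesthesia, into EDTA tubes containing aprotinin and DPPIV inhibitor. Plasma was protein-precipitated with acetonitrile containing an internal standard, and supernatants were analyzed by LC-MS/MS against a plasma standard curve.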

C57BL/6 male mice = experiment: In vivo gallbladder measurement (weight) 16 hours post-dose; details: 30 mg/kg
total (t) GLP-1 = experiment: Time course of in vivo induction of total GLP-1; details: C57BL/6 male mice, 30 mg/kg oral, 4, 8, 12 and 16 h
Procedure: (§2) C57BL/6 male mice on regular chow received an oral dose of vehicle (2% DMSO in 0.4% hydroxypropyl methylcellulose) or examples 176 or 178 (at 30 mg/kg). Food was removed prior to/or at the time of dosing: 4, 8, 12, and 16 h groups fasted for 7, 8, 12 and 16 h, respectively. At the appropriate time after dosing, mice were heavily anesthetized with isoflurane, and blood was collected from the left ventricle of the heart and processed to plasma as described in Example 293 for measurement of total (t) GLP-1 and, additionally, total (t)PYY (N45ZA-1; Meso Scales Discovery, Gaithersburg Md.).

total (t)PYY = experiment: Time course of in vivo induction of total PYY; details: C57BL/6 male mice; for induction of tPYY levels following a single oral dose: 30 mg/kg oral, 4, 8, 12 and 16 h
Procedure: as §2

human IBAT = biological target: T3, human IBAT (Homo sapiens, UniProt Q12908); experiment: IBAT counter screen, [3H]taurocholic acid uptake in IBAT-transfected HEK293 cells; format: cell-based; details: read-out: pEC50 human IBAT (converted)
T3 construct: expressed in transfected cells; host or cells: HEK293
T3 sequence (Q12908 1-348): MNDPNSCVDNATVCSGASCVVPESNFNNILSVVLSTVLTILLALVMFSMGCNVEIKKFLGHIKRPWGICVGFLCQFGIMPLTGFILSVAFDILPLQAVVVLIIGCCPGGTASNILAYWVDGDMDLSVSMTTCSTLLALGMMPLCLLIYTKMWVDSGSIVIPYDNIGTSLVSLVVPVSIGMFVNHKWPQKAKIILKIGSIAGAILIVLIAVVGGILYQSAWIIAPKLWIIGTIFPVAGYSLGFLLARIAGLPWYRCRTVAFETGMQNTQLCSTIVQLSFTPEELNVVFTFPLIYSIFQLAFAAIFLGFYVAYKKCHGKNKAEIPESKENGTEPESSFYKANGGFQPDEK
Procedure: Following a 40-min incubation, the solution was removed, and the cells were washed twice with uptake buffer. Cells were lysed by addition of 20 μL 0.1% Tween 80 followed by 100 μL scintillation fluid and counted using a TopCount (Perkin Elmer).

human FXR = biological target: T4, human FXR (Homo sapiens, UniProt Q96RI1); experiment: FXR counter screen, cell-based luciferase reporter assay; details: cells expressing human FXR and FXR-responsive luciferase reporter, 0.4 to 50 μM test compound; read-out: pEC50 human FXR (converted)
T4 construct: purchased Indigo Biosciences (State College, Pa.)
T4 sequence (Q96RI1 1-486): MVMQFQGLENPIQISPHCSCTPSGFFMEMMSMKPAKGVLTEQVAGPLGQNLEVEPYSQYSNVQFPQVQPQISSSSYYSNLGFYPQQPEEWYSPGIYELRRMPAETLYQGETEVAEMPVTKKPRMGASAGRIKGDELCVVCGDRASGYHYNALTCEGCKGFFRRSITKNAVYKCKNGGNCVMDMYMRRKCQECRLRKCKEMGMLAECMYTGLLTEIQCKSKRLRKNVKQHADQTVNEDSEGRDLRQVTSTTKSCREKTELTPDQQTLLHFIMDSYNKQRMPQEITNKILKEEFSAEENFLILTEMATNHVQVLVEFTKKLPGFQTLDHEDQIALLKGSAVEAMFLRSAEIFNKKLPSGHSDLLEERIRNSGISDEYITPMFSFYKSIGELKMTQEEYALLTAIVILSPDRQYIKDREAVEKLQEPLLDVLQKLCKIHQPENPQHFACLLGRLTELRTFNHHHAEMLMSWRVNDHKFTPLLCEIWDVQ
Procedure: FXR: The ability of test compounds to activate FXR (NR1H4) was measured using a cell-based assay kit obtained from Indigo Biosciences (State College, Pa.).

mice = details: i.p. injection, in 30 minutes, literature (Li et al. 2011); cited from earlier work

O=C(O)CCc1cc(Cl)c(CNC2(C(=O)N3CCN(C4CC4)c4ccccc43)CC2)cc1Cl [Example 83, 3-(2,5-dichloro-4-(((1-(4-cyclopropyl-1,2,3,4-tetrahydroquinoxaline-1-carbonyl)cyclopropyl)amino)methyl)phenyl)propanoic acid]
EC50 (human TGR5): 126 to 1000 nM | EC50 [1]: 1260 to 50100 nM | Number of Mice with Gallbladder Concentration < LLOQ [2]: 0/6 | concentration at 16 h [2]: 30 nM

CN1C(=O)[C@@H](NC(=O)c2cc3ccccc3[nH]2)N=C(c2ccccc2)c2ccccc21 [devazepide, reference compound]
inhibition of CCK-mediated gallbladder emptying (CD-1 female mice): did

O=C(N1CCCc2cccnc21)C1(OCc2cc(Cl)ccc2Cl)CC1 [Example 85, 1-([1-[(2,5-dichlorophenyl)methoxy]cyclopropyl]carbonyl)-1,2,3,4-tetrahydro-1,8-naphthyridine]
EC50 (human TGR5): 126 to 1000 nM | EC50 [1]: 1260 to 50100 nM | Number of Mice with Gallbladder Concentration < LLOQ [2]: 0/6 | concentration at 16 h [2]: 200 nM

O=C(NC[C@H](O)[C@@H](O)[C@H](O)[C@H](O)CO)c1ccc(COc2cc(Cl)c(CN3CSC[C@H]3C(=O)N3CCN(C4CC4)c4ccccc43)cc2Cl)cc1 [Example 176, 4-(2,5-dichloro-4-{[(4R)-4-[(4-cyclopropyl-1,2,3,4-tetrahydroquinoxalin-1-yl)carbonyl]-1,3-thiazolidin-3-yl]methyl}phenoxymethyl)-N-[(2S,3R,4R,5R)-2,3,4,5,6-pentahydroxyhexyl]benzamide]
Number of Mice with Gallbladder Concentration < LLOQ [3]: 0/8 | concentration at 8 h ([3]; male, C57BL/6, mouse, with contents, mice, gallbladder homogenate, read-out: Mean Example Gallbladder Concentration): 100 nM | Number of Mice with Plasma Concentration < LLOQ [4]: 8/8 | concentration at 8 h [4]: < 2 ng/mL | effect on gallbladder weight/body weight (C57BL/6 male mice): no significant effect | inhibition of CCK-mediated gallbladder emptying (CD-1 female mice): did not inhibit | induction of tGLP-1 levels following a single oral dose (total (t) GLP-1): sustained induction | induction of tPYY levels following a single oral dose (total (t)PYY): sustained induction

O=C(CCCCc1cc(Cl)c(CN2CSC[C@H]2C(=O)N2CCN(C3CC3)c3ccccc32)cc1Cl)NC[C@H](O)[C@@H](O)[C@H](O)[C@H](O)CO [Example 178, 5-(2,5-dichloro-4-(((R)-4-(4-cyclopropyl-1,2,3,4-tetrahydroquinoxaline-1-carbonyl)thiazolidin-3-yl)methyl)phenyl)-N-((2S,3R,4R,5R)-2,3,4,5,6-pentahydroxyhexyl)pentanamide]
Number of Mice with Gallbladder Concentration < LLOQ [3]: 0/8 | Number of Mice with Plasma Concentration < LLOQ [4]: 8/8 | concentration at 8 h [4]: < 1 ng/mL | EC50 (human IBAT): > 25100 nM | EC50 (human FXR): > 50100 nM | effect on gallbladder weight/body weight (C57BL/6 male mice): no significant effect | inhibition of CCK-mediated gallbladder emptying (CD-1 female mice): did not inhibit | induction of tGLP-1 levels following a single oral dose (total (t) GLP-1): sustained induction | induction of tPYY levels following a single oral dose (total (t)PYY): sustained induction | times after dosing at which tPYY levels were significantly elevated (total (t)PYY; 30 mg/kg oral, tested 4, 8, 12 and 16 h (FIG. 2, panel B)): 8 h

CC[C@H]1[C@@H](O)[C@@H]2[C@H](C[C@H](O)[C@]3(C)[C@@H]([C@H](C)C[C@H](C)C(=O)O)CC[C@@H]23)[C@@]2(C)CC[C@@H](O)C[C@@H]12 [INT-777]
increase of gallbladder volume (mice): approximately two-fold
